According to PubChem BioAssay (NCI):
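Test compounds were applied to cells in 96-well plates for 48 hours at 5 doses. TGI marks complete inhibition of growth.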

Experiments:
Test in all cases: growth of human tumour cells (NCI), 48 h
SF-295 CNS = test system: SF-295 CNS
RPMI-8226 leukemia = test system: RPMI-8226 leukemia
K-562 leukemia = test system: K-562 leukemia
HCC-2998 colon = test system: HCC-2998 colon
LOX IMVI melanoma = test system: LOX IMVI melanoma
UO-31 renal = test system: UO-31 renal
M14 melanoma = test system: M14 melanoma
SF-539 CNS = test system: SF-539 CNS
NCI-H226 lung = test system: NCI-H226 lung
T-47D breast = test system: T-47D breast
CAKI-1 renal = test system: CAKI-1 renal

Compound | TGI (SF-295 CNS) [µM] | TGI (RPMI-8226 leukemia) [µM] | TGI (K-562 leukemia) [µM] | TGI (HCC-2998 colon) [µM] | TGI (LOX IMVI melanoma) [µM] | TGI (UO-31 renal) [µM] | TGI (M14 melanoma) [µM] | TGI (SF-539 CNS) [µM] | TGI (NCI-H226 lung) [µM] | TGI (T-47D breast) [µM] | TGI (CAKI-1 renal) [µM]
C1CCC(N=C2N(C3CCCCC3)C(=NC3CCCCC3)N2C2CCCCC2)CC1 | > 100 | > 100 | > 100 | > 100 | > 100 | > 100 | > 100 |  |  |  | 
O=C1c2ccccc2N2OC3(N4CCOCC4)CCCC3C12c1ccccc1 (centres undefined) | > 100 | > 100 | > 100 | > 100 |  | > 100 | > 100 | > 100 | > 100 |  | 
COc1cc(C2c3cc4c(cc3OC(NN)C2C)OCO4)cc(OC)c1O (centres undefined) | 14.7 | 17.8 | 12.6 | 29.6 |  | 61.8 | > 100 | 45.4 | 62 | 31 | > 100
CCOC(=O)/C(=C/c1ccccn1)C(=O)c1ccccc1 | 27.6 | 13.2 | 85 | 31.3 | 6.94 | 30 | 29.3 | 31 | 31.8 |  | 27.9
NNC(=O)C(=O)NN=C(C(Cl)(Cl)CO)C(Cl)(Cl)CO | > 100 | > 100 | > 100 | > 100 | 35.3 | > 100 | 94 | 61.2 | > 100 |  | 97.4
CC1(C)O[C@@H]2[C@@H](COC(C)(C)O[C@H]2C2SCCCS2)O1 | > 100 | > 100 | > 100 | > 100 |  | > 100 | > 100 | > 100 |  | > 100 | > 100
COc1ccc2ccccc2c1C1=NC(C)(C)CO1 | > 100 | > 100 | > 100 |  |  | > 100 | > 100 | > 100 | > 100 |  | > 100
CC(=O)OC1COC(N2CCc3cc([N+](=O)[O-])ccc32)C(OC(C)=O)C1OC(C)=O (centres undefined) | > 100 | > 100 | > 100 |  | > 100 | > 100 | > 100 | > 100 | > 100 |  | > 100
COC(=O)[C@@H]1CO[C@H](C(C)(C)C)N1C(=O)N1C=CC(=O)C[C@H]1C | > 100 | > 100 | > 100 |  | > 100 | > 100 | > 100 |  | > 100 | > 100 | > 100
COc1ccc(-c2oc3cc(-c4cc5oc(-c6ccc(OC)cc6)c(-c6ccc(OC)cc6)c5cc4OC)c(OC)cc3c2-c2ccc(OC)cc2)cc1 | > 100 | > 100 | > 100 | > 100 | > 100 | > 100 | > 100 | > 100 | > 100 |  | > 100
COC(=O)C(C(=O)C(=O)Nc1c(Cl)cc([N+](=O)[O-])cc1Cl)c1csc(-n2nc(C3=CCCCC3)cc2-c2ccccc2)n1 (centres undefined) | > 100 | > 100 | > 100 | > 100 | > 100 | > 100 | > 100 | > 100 | > 100 |  | > 100
C1CSCCSCCCS[C@@H]2CCCCC2SC1 (some centres undefined) | > 100 | 52.6 | 96.1 | > 100 | > 100 | > 100 | > 100 | > 100 | > 100 |  | > 100
CSc1nncc(-c2cc3c(c(SC)n2)CCCC3)n1 | > 100 | > 100 | > 100 | > 100 |  | > 100 | > 100 | > 100 | > 100 |  | > 100
Cc1cc(O)c(/C=N/C(N)=S)c(=O)o1 | > 100 |  |  | > 100 |  | > 100 | > 100 | > 100 | > 100 |  | > 100
Cn1c2ccccc2c(=O)c2c(O)cc3c(c21)C1OCC(C)(O)C1O3 (centres undefined) |  | > 100 | > 100 | > 100 |  | 36.6 | > 100 | 56.2 | 63.5 | > 100 | > 100
COc1ccc(-c2c(C3=NCCCN3)nnn2-c2ccccc2)cc1 | > 100 | > 100 | > 100 | > 100 | > 100 | > 100 | > 100 | > 100 | > 100 |  | > 100
O=C1CC(c2ccc(Cl)cc2)=Nc2ccccc2N1 | > 100 |  | > 100 | > 100 | 58.8 | > 100 | > 100 | > 100 | > 100 |  | > 100
